Reference: US20250090614A1, “COMPOSITIONS AND METHODS FOR IMPROVING LUNG FUNCTION” (priority 2023, published 2025)

How the values were obtained:
[1] = tested on: mTOR; experiment: mTOR ELISA in lung tissue homogenate of aged mice; type: in vivo, mouse; conditions: aged C57BL/6 mice, 25 mg/kg p.o. each substance, 90 days
Description: The experiments were performed in old C57b1/6 mice (28-30 weeks). Table 1 discloses the groups of mice used for the experimentation. C57BL/6 mice were bred and naturally aged in a pathogen-free colony. Mice were group-housed six per cage for the treatment regimen and maintained on a 12-hr light-dark schedule with ad libitum access to food and water. All experiments were designed according to the principles of animal use for gerontological research (Miller, R. A., & Nadon, N. L. (2000). Principles of animal use for gerontological research. Journals of Gerontology. Series A, Biological Sciences and Medical Sciences, 55, B117-B123) [table] The above test substances were administered to the mice for a period of 90 days. Rapamycin was used as a positive control. After 90 days of administration experiments were performed to assess the respiratory muscle function, anatomical changes, cellular senescence and immunological changes. Activation of AMPK delays senescence. Abnormal autophagy and aging promote each other, and AMPK is an important regulator of this process. AMPK is involved in the transduction of several aging-related signaling pathways. AMPK intervenes in the development of many age-related diseases. […] These events contribute to the pathogenesis of age-related disorders.

[2] = tested on: Immunoglobulin A (IgA); experiment: IgA ELISA in bronchoalveolar lavage fluid of aged mice; type: in vivo, mouse; conditions: aged C57BL/6 mice, 25 mg/kg p.o. each substance, 90 days
Description: The experiments were performed in old C57b1/6 mice (28-30 weeks). Table 1 discloses the groups of mice used for the experimentation. C57BL/6 mice were bred and naturally aged in a pathogen-free colony. Mice were group-housed six per cage for the treatment regimen and maintained on a 12-hr light-dark schedule with ad libitum access to food and water. All experiments were designed according to the principles of animal use for gerontological research (Miller, R. A., & Nadon, N. L. (2000). Principles of animal use for gerontological research. Journals of Gerontology. Series A, Biological Sciences and Medical Sciences, 55, B117-B123) [table] The above test substances were administered to the mice for a period of 90 days. Rapamycin was used as a positive control. After 90 days of administration experiments were performed to assess the respiratory muscle function, anatomical changes, cellular senescence and immunological changes. Bronchoalveolar lavage (BAL) fluids in healthy older subjects have consistently shown an increased proportion of neutrophils and lower percentage of macrophages compared with younger adults. There is age-associated decline in immunoglobins IgA and IgM. […] Immunoglobulin A (IgA) is the most abundant Ig in mucosac where it plays key roles in host defense against pathogens and in mucosal immunoregulation. […]

With `O=C(/C=C/c1ccc(O)c(O)c1)O[C@H](Cc1ccc(O)c(O)c1)C(=O)O` [Rosmarinic acid] the “expression of mTOR” value [1] was “decreased” and the “expression of IgA” value [2] was “increased”.
